Assay results as given in patent US20230043863A1, “HETEROAROMATIC DERIVATIVES FOR USE AS REGULATOR, PREPARATION METHOD THEREFOR AND USE THEREOF” (JIANGSU HANSOH PHARMACEUTICAL GROUP CO., LTD., priority 2018, published 2023).

Assays:
JAK1 = JAK1 (Homo sapiens, UniProt P23458); assay: JAK kinase activity inhibition, TR-FRET (JAK1); format: biochemical; conditions: TR-FRET kinase assay
Method in brief: (§1)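 Steps: compound dilutions added; JAK kinase (0.1-20 nM) in HEPES/MgCl2 buffer added; peptide substrate and ATP mix started the reaction, 0.5-5 h at room temperature; EDTA and labeled antibody added, 1-24 h further. IC50 derived from 620/665 nm signals by four-parameter nonlinear fitting.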

JAK2 = JAK2 (Homo sapiens, UniProt O60674); assay: JAK kinase activity inhibition, TR-FRET (JAK2); format: biochemical; conditions: TR-FRET kinase assay
Protocol: (§2) Experimental objective: The objective of this test is to test the inhibitory effect of the compound on JAK kinase activity.
(§3) Experimental method: the fluorescence resonance energy transfer (TR-FRET) method was used to test the inhibitory effect of the compound on JAK kinase activity, and the half inhibitory concentration IC50 of the compound on JAK kinase activity was obtained.
(§4) Kinase reaction was carried out in a white 384-well plate (PerkinElmer). 1-5 μL of different concentrations of the compound diluted with DMSO and ddH2O was added into each well, and 1-5 μL of the corresponding solvent was added to the positive control wells, followed by addition of 0.1-20 nM JAK kinase solution diluted with 1-5 μL of kinase buffer (HEPES 50-250 mM, MgCl2 5-20 mM, etc.) was added to each well. 1-5 μL of kinase buffer was added to the negative control well. 1-5 μL of substrate mixture containing peptide substrate and ATP was added. The plate was incubated at room temperature for 0.5-5 hours. […], EDTA and detection solution containing labeled antibody was added, and then the plate was incubated at room temperature for another 1-24 hours. The fluorescence signal value at about 620 nm and 665 nm of each well was measured by BioTek Synergy H1 plate reader, and the inhibition rate was calculated by the fluorescence signal value. According to the inhibition rate of different concentrations, the IC50 of the compound was obtained by curve fitting.
(§5) The percentage inhibition data of the wells treated with the compound was calculated with the positive control wells (DMSO control wells) and negative control wells (no kinase added) on the plate {% inhibition rate=100-[(test compound value-negative control value)]/(Positive control value-negative control value)×100}. IC50 value was calculated by using GraphPad prism to fit the data of different concentrations and corresponding percentage inhibition rates to a 4-parameter non-linear logic formula.

JAK3 = target: T1, JAK3 (Homo sapiens, UniProt P52333); assay: JAK kinase activity inhibition, TR-FRET (JAK3); format: biochemical; conditions: TR-FRET kinase assay
T1 sequence (P52333 1-1124): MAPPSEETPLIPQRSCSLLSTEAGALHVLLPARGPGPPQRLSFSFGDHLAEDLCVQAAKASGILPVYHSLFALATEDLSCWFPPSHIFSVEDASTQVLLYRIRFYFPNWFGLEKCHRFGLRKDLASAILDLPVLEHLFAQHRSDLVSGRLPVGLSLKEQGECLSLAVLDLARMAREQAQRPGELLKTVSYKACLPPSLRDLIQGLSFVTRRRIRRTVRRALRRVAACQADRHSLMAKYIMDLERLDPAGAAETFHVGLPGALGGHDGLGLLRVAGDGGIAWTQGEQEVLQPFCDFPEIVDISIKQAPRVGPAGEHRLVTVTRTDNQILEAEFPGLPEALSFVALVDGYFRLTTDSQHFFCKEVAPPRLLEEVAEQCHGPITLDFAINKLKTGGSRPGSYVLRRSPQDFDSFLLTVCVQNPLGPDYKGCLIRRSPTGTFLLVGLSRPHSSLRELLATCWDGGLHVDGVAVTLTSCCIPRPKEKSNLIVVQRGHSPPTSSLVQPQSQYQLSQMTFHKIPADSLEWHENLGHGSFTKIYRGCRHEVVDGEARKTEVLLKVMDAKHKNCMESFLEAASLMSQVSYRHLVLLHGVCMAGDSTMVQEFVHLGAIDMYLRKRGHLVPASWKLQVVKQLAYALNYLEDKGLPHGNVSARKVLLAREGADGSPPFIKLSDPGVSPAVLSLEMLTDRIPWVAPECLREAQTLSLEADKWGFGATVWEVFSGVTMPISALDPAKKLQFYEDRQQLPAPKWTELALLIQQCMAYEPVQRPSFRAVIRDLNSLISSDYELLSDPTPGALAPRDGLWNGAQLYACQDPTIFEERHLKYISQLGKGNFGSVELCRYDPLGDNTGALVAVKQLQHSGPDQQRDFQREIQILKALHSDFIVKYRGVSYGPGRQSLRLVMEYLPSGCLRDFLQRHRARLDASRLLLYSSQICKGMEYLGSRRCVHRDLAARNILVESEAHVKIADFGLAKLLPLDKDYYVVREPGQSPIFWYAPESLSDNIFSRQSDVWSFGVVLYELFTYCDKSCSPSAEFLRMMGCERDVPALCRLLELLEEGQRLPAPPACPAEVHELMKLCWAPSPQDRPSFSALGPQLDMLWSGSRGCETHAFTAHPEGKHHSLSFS
Protocol: as §2, §3, §4, §5

TYK2 = TYK2 (Homo sapiens, UniProt P29597); assay: JAK kinase activity inhibition, TR-FRET (TYK2); format: biochemical; conditions: TR-FRET kinase assay
Method in brief: as §1

[1] = tested on: JAK-STAT signal pathway of U266 cells; assay: Inhibition of cellular JAK-STAT signal pathway (STAT3 phosphorylation) in U266 cells; format: cell-based, human; conditions: Homo sapiens, U-266, INF-a 1000 U/mL stimulation
Method in brief: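 U266 cells (100-300 K/well) preincubated 2 h at room temperature with serially diluted compound, then stimulated 15 min with IFN-α at 1000 U/mL final. After lysis, STAT3 phosphorylation read by LANCE Ultra TR-FRET (Eu antibody 0.5 nM, ULight antibody 5 nM, overnight) at 665 nm; IC50 from 4-parameter fit of inhibition versus DMSO and negative controls.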

Sequence of JAK2 (O60674 whole entry): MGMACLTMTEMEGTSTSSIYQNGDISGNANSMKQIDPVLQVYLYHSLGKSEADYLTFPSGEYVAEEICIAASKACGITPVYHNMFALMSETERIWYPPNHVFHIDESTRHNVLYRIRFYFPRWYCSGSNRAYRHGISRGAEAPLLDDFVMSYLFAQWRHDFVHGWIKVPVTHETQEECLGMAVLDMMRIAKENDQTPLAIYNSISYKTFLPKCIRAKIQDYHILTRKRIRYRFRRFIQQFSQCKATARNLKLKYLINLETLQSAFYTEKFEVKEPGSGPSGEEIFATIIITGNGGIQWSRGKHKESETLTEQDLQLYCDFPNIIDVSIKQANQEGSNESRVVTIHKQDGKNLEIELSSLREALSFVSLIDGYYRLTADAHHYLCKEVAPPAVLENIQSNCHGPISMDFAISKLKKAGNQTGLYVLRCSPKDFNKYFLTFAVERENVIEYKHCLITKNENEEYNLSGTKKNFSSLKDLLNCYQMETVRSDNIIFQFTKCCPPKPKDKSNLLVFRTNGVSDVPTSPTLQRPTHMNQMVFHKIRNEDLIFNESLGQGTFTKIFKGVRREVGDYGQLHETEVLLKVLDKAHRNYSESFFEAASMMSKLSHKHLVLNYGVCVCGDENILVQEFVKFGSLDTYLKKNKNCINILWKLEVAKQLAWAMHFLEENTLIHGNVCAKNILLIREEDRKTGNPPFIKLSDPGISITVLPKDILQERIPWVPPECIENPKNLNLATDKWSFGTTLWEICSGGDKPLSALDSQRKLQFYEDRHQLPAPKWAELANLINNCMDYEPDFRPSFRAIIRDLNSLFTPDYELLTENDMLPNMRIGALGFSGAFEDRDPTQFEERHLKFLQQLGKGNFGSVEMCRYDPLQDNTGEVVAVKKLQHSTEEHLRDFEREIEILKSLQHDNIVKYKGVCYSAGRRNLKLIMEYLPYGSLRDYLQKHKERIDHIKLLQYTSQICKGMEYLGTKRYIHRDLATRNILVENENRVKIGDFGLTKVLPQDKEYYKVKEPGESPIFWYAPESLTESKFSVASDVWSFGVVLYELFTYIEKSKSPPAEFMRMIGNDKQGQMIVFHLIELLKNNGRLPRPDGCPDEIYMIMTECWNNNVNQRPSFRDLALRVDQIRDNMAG
Sequence of TYK2 (P29597 whole entry): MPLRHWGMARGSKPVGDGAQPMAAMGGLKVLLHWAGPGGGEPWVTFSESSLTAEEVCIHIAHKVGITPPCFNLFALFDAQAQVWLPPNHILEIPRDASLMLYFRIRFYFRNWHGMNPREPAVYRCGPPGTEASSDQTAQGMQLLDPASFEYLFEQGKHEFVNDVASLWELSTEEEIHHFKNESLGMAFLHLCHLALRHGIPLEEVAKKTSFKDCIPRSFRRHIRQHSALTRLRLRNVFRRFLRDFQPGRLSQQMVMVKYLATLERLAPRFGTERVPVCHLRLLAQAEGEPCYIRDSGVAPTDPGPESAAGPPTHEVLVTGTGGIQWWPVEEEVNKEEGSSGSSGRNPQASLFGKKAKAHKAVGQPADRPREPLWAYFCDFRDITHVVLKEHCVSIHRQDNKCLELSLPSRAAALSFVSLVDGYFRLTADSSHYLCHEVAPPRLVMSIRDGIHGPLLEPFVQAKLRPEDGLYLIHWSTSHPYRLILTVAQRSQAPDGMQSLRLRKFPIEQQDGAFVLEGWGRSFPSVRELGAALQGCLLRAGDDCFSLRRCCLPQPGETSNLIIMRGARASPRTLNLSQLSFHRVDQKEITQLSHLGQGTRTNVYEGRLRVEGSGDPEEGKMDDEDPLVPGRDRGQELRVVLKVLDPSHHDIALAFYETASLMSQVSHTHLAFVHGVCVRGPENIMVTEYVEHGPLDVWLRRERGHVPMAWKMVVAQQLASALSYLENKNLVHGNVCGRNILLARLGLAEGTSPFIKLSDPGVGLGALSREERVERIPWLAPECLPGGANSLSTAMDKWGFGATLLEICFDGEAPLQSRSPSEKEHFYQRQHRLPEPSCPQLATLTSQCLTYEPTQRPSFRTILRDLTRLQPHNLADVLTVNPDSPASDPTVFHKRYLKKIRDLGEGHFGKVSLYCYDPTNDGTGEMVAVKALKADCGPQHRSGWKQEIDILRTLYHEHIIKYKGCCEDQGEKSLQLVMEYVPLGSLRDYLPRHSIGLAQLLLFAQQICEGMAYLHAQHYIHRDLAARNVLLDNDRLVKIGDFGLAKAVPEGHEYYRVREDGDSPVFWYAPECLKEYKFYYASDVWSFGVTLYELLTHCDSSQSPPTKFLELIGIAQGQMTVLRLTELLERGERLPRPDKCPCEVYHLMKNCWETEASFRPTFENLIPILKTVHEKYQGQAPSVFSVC
Sequence of JAK1 (P23458 whole entry): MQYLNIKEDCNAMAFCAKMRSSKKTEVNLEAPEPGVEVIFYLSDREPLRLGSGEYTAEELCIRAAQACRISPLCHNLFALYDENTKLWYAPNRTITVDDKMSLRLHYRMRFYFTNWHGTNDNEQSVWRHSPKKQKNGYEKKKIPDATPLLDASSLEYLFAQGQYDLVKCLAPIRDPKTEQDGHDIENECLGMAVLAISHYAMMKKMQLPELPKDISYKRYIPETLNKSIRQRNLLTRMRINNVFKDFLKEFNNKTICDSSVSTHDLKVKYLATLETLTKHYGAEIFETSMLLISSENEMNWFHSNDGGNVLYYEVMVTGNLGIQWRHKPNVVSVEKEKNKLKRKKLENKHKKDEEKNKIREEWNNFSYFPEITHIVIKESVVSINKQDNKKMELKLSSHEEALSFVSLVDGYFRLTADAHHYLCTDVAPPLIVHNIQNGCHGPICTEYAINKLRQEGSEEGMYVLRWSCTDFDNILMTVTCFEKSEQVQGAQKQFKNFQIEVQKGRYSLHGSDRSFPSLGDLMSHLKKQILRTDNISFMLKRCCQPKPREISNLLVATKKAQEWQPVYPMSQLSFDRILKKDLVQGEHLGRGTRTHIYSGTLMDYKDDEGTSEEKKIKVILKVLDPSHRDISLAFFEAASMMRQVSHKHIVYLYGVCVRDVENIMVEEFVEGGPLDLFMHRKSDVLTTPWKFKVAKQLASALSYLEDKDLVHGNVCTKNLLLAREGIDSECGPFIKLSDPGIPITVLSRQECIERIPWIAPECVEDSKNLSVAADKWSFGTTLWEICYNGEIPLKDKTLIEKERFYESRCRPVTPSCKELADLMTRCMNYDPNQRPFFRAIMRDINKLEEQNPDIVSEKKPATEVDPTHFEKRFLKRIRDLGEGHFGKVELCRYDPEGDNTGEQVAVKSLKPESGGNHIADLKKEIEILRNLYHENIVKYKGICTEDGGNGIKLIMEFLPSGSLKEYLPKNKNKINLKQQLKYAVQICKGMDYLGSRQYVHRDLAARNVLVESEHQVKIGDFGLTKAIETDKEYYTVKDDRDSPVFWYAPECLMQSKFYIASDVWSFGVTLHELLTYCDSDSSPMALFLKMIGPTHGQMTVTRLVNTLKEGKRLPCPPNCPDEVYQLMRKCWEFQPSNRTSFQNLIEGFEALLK

`Cc1cnc(Nc2cc3ncccc3c(N[C@@H]3C[C@H]4CC[C@@H](C3)N4CCC#N)n2)s1` [Embodiment 1, 3-((3-exo)-3-((7-((5-methylthioazol-2-yl)amino)-1,6-diazanaphthalen-5-yl)amino)-8-azabicyclo[3.2.1]oct-8-yl)propionitrile] gave an IC50 (JAK1) of 340 pM, an IC50 (JAK2) of 690 pM and an IC50 (JAK3) of 2680 pM. It also gave an IC50 (TYK2) of 550 pM and an IC50 [1] of 150 pM.

Compound `Cc1cc(Nc2nc(N[C@@H]3C[C@H]4CC[C@@H](C3)N4CCC#N)nc3ccsc23)n[nH]1` [Embodiment 60, 3-((3-exo)-3-((4-((5-methyl-1H-pyrazol-3-yl)amino)thieno[3,2-d]pyrimidin-2-yl)amino)-8-azabicyclo[3.2.1]oct-8-yl)propionitrile] has an IC50 (JAK1) of 120 pM, an IC50 (TYK2) of 460 pM and an IC50 [1] of 2900 pM.

For `COc1ccc2c(Nc3cc(C)[nH]n3)nc(N[C@@H]3C[C@H]4CC[C@@H](C3)N4CCC#N)nc2c1` [Embodiment 169, 3-((3-exo)-3-((7-methoxyl-4-((5-methyl-1H-pyrazol-3-yl)amino)quinazolin-2-yl)amino)-8-azabicyclo[3.2.1]oct-8-yl)propionitrile], the IC50 (JAK1) was 630 pM, the IC50 (JAK2) was 1070 pM and the IC50 (JAK3) was 28800 pM. It also gave an IC50 (TYK2) of 500 pM and an IC50 [1] of 9320 pM.

Work on `Cc1cc(Nc2nc(N[C@@H]3C[C@H]4CC[C@@H](C3)N4CCC#N)nc3cc(Br)ccc23)n[nH]1` [Embodiment 170, 3-((3-exo)-3-((7-bromine-4-((5-methyl-1H-pyrazol-3-yl)amino)quinazolin-2-yl)amino)-8-azabicyclo[3.2.1]oct-8-yl)propionitrile] yielded an IC50 (JAK1) of 660 pM, an IC50 (TYK2) of 225 pM and an IC50 [1] of 3350 pM.

`Cc1cc(Nc2nc(N[C@@H]3C[C@H]4CC[C@@H](C3)N4CCC#N)nc3cc(Cl)ccc23)n[nH]1` [Embodiment 171, 3-((3-exo)-3-((7-chloro-4-((5-methyl-1H-pyrazol-3-yl)amino)quinazolin-2-yl)amino)-8-azabicyclo[3.2.1]oct-8-yl)propionitrile] gave an IC50 (JAK1) of 850 pM, an IC50 (JAK2) of 670 pM and an IC50 (JAK3) of 23300 pM. The IC50 (TYK2) was 600 pM and the IC50 [1] was 850 pM.

In the case of `Cc1cc(Nc2nc(N[C@@H]3C[C@H]4CC[C@@H](C3)N4S(=O)(=O)N3CC(C#N)C3)nc3ccccc23)n[nH]1` [Embodiment 213, 1-(((3-exo)-3-((4-((5-methyl-1H-pyrazol-3-yl)amino)quinazolin-2-yl)amino)-8-azabicyclo[3.2.1]oct-8-yl)sulfonyl)azetindin-3-formonitrile], the IC50 (JAK1) is reported as 200 pM, the IC50 (JAK2) is reported as 300 pM and the IC50 (JAK3) is reported as 12600 pM. It also gave an IC50 (TYK2) of 460 pM and an IC50 [1] of 11000 pM.

Compound `Cc1cc(Nc2nc(N[C@@H]3C[C@H]4CC[C@@H](C3)N4S(=O)(=O)N3CC(C#N)C3)nc3cc(Cl)ccc23)n[nH]1` [Embodiment 214] has an IC50 (JAK1) of 350 pM, an IC50 (JAK2) of 820 pM and an IC50 (JAK3) of 133000 pM. It also gave an IC50 (TYK2) of 455 pM and an IC50 [1] of 17700 pM.

`Cc1cc(Nc2nc(N[C@@H]3C[C@H]4CC[C@@H](C3)N4S(=O)(=O)N3CC(C#N)C3)nc3sccc23)n[nH]1` [Embodiment 237, 1-(((3-exo)-3-((4-((5-methyl-1H-pyrazol-3-yl)amino)thieno[2,3-d]pyrimidin-2-yl)amino)-8-azabicyclo[3.2.1]oct-8-yl)sulfonyl)azetindin-3-formonitrile] showed an IC50 (JAK1) of 70 pM, an IC50 (JAK2) of 790 pM and an IC50 (JAK3) of 3620 pM. For the same compound, the IC50 (TYK2) was 320 pM and the IC50 [1] was 560 pM.

`Cc1cc(Nc2nc(N[C@@H]3C[C@H]4CCC[C@@H](C3)N4S(=O)(=O)N3CC(C#N)C3)nc3sccc23)n[nH]1` [Embodiment 238] showed an IC50 (JAK1) of 30 pM, an IC50 (JAK2) of 440 pM and an IC50 (JAK3) of 710 pM. It also gave an IC50 (TYK2) of 120 pM and an IC50 [1] of 1150 pM.

`Cc1cc(Nc2nc(N[C@@H]3C[C@H]4CCC[C@@H](C3)N4C(=O)CN3CCOCC3)nc3sccc23)n[nH]1` [Embodiment 246, 1-((3-exo)-3-((4-((5-methyl-1H-pyrazol-3-yl)amino)thieno[2,3-d]pyrimidin-2-yl)amino)-9-azabicyclo[3.3.1]non-9-yl)-2-morpholinoethane-1-one] gave an IC50 (JAK1) of 220 pM, an IC50 (JAK2) of 710 pM and an IC50 (JAK3) of 6870 pM. For the same compound, the IC50 (TYK2) was 1880 pM and the IC50 [1] was 1000 pM.

`CNCC(=O)N1[C@@H]2CCC[C@H]1C[C@H](Nc1nc(Nc3cc(C)[nH]n3)c3ccsc3n1)C2` [Embodiment 247, 1-((3-exo)-3-((4-((5-methyl-1H-pyrazol-3-yl)amino)thieno[2,3-d]pyrimidin-2-yl)amino)-9-azabicyclo[3.3.1]non-9-yl)-2-(methylamino)-ethane-1-one] was tested, and the IC50 (JAK1) was 100 pM, the IC50 (JAK2) was 730 pM and the IC50 (JAK3) was 2400 pM. The IC50 (TYK2) was 120 pM and the IC50 [1] was 2270 pM.

`Cc1cc(Nc2nc(N(C)[C@@H]3C[C@H]4CCC[C@@H](C3)N4C(=O)CN3CCN(C)CC3)nc3sccc23)n[nH]1` [Embodiment 257, 1-((3-exo)-3-(methyl(4-((5-methyl-1H-pyrazol-3-yl)amino)thieno[2,3-d]pyrimidin-2-yl)amino)-9-azabicyclo[3.3.1]non-9-yl)-2-(4-methylpiperazin-1-yl)ethane-1-one] showed an IC50 (JAK1) of 70 pM, an IC50 (JAK2) of 830 pM and an IC50 (JAK3) of 19900 pM. The IC50 (TYK2) was 200 pM and the IC50 [1] was 1450 pM.

`Cc1cc(Nc2nc(N[C@@H]3C[C@H]4CCC[C@@H](C3)N4C(=O)c3ccccn3)nc3sccc23)n[nH]1` [Embodiment 260, ((3-exo)-3-((4-((5-methyl-1H-pyrazol-3-yl)amino)thieno[2,3-d]pyrimidin-2-yl)amino)-9-azabicyclo[3.3.1]non-9-yl)(pyridin-2-yl)methanone] showed an IC50 (JAK1) of 190 pM, an IC50 (JAK2) of 360 pM and an IC50 (JAK3) of 3830 pM. The IC50 (TYK2) was 225 pM and the IC50 [1] was 1100 pM.

For `Cc1cc(Nc2nc(N[C@@H]3C[C@H]4CC[C@@H](C3)N4CCC#N)nc3sc(C)cc23)n[nH]1` [Embodiment 277, 3-((3-exo)-3-((6-methyl-4-((5-methyl-1H-pyrazol-3-yl)amino)thieno[2,3-d]pyrimidin-2-yl)amino)-8-azabicyclo[3.2.1]oct-8-yl)propionitrile], the IC50 (JAK1) was 610 pM, the IC50 (JAK2) was 1010 pM and the IC50 (JAK3) was 8260 pM. For the same compound, the IC50 (TYK2) was 580 pM and the IC50 [1] was 490 pM.

For `Cc1cc(Nc2nc(N[C@@H]3C[C@H]4CCC[C@@H](C3)N4CCC#N)nc3scnc23)n[nH]1` [Embodiment 278, 3-((3-exo)-3-((7-((5-methyl-1H-pyrazol-3-yl)amino)thiazolo[5,4-d]pyrimidin-5-yl)amino)-9-azabicyclo[3.3.1]non-9-yl)propionitrile], the IC50 (JAK1) was 710 pM, the IC50 (JAK2) was 1340 pM and the IC50 (JAK3) was 7050 pM. For the same compound, the IC50 (TYK2) was 980 pM and the IC50 [1] was 290 pM.
